# Results published in ChEMBL document CHEMBL3603792, “The discovery of oxazolones-grafted spirooxindoles via three-component diversity oriented synthesis and their preliminary biological evaluation” (Bioorg Med Chem Lett, 2015).
# Calls of active or inactive are those of the source. The rule behind the calls is not given here.
# Key:
# HepG2 [1] = assay: Cytotoxicity against human HepG2 cells assessed as inhibition of cell growth at 10 ug/ml incubated for 48 hrs by MTT assay; type: functional, cell-based
# SK-OV-3 = assay: Cytotoxicity against human SKOV3 cells assessed as inhibition of cell growth at 10 ug/ml incubated for 48 hrs by MTT assay; type: functional, cell-based
# A-375 = assay: Cytotoxicity against human A375 cells assessed as inhibition of cell growth at 10 ug/ml incubated for 48 hrs by MTT assay; type: functional, cell-based
# A549 = assay: Cytotoxicity against human A549 cells assessed as inhibition of cell growth at 10 ug/ml incubated for 48 hrs by MTT assay; type: functional, cell-based
# MCF7 [2] = assay: Cytotoxicity against human MCF7 cells assessed as inhibition of cell growth at 10 ug/ml incubated for 48 hrs by MTT assay; type: functional, cell-based
# PANC-1 = assay: Cytotoxicity against human PANC1 cells assessed as inhibition of cell growth at 10 ug/ml incubated for 48 hrs by MTT assay; type: functional, cell-based
# HeLa [3] = assay: Cytotoxicity against human HeLa cells assessed as inhibition of cell growth at 10 ug/ml incubated for 48 hrs by MTT assay; type: functional, cell-based
# K562 = assay: Cytotoxicity against human K562 cells assessed as inhibition of cell growth at 10 ug/ml incubated for 48 hrs by MTT assay; type: functional, cell-based
# cells [4] = type: functional, cell-based; details: Homo sapiens, HCCC9810, 48 h
# Description: Cytotoxicity against human HCCC9810 cells assessed as inhibition of cell growth incubated for 48 hrs by MTT assay
# HepG2 [5] = assay: cells; type: functional, cell-based; details: Homo sapiens, HepG2, 48 h
# Description: Cytotoxicity against human HepG2 cells assessed as inhibition of cell growth incubated for 48 hrs by MTT assay
# MDA-MB-231 = assay: cells; type: functional, cell-based; details: Homo sapiens, MDA-MB-231, 48 h
# Description: Cytotoxicity against human MDA-MB-231 cells assessed as inhibition of cell growth incubated for 48 hrs by MTT assay
# MDA-MB-468 = assay: cells; type: functional, cell-based; details: Homo sapiens, MDA-MB-468, 48 h
# Description: Cytotoxicity against human MDA-MB-468 cells assessed as inhibition of cell growth incubated for 48 hrs by MTT assay
# MCF7 [6] = assay: cells; type: functional, cell-based; details: Homo sapiens, MCF7, 48 h
# Description: Cytotoxicity against human MCF7 cells assessed as inhibition of cell growth incubated for 48 hrs by MTT assay
# cells [7] = type: functional, cell-based; details: Homo sapiens, Huh-7, 48 h
# Description: Cytotoxicity against human HuH7 cells assessed as inhibition of cell growth incubated for 48 hrs by MTT assay
# MCF7 [8] = assay: Induction of apoptosis in human MCF7 cells assessed as increase in PARP cleavage incubated for 24 hrs by Western blotting method; type: functional, cell-based
# MCF7 [9] = assay: Induction of apoptosis in human MCF7 cells at 50 uM incubated for 24 hrs by Hoechst 33342 staining; type: functional, cell-based
# HeLa [10] = assay: Induction of apoptosis in human HeLa cells incubated for 24 hrs by Annexin V-FITC/PI staining based flow cytometry (reference value: 3.37%); type: functional
# HeLa [11] = assay: Induction of apoptosis in human HeLa cells incubated for 12 hrs by Annexin V-FITC/PI staining based flow cytometry (reference value: 3.37%); type: functional
Structure (SMILES),growth inhibition (GI) (HepG2 [1]),growth inhibition (GI) (SK-OV-3),growth inhibition (GI) (A-375),growth inhibition (GI) (A549),growth inhibition (GI) (MCF7 [2]),growth inhibition (GI) (PANC-1),growth inhibition (GI) (HeLa [3]),growth inhibition (GI) (K562),IC50 (cells [4]),IC50 (HepG2 [5]),IC50 (MDA-MB-231),IC50 (MDA-MB-468),IC50 (MCF7 [6]),IC50 (cells [7]),Activity (MCF7 [8]),Activity (MCF7 [9]),Activity (HeLa [10]),Activity (HeLa [11])
O=C1OC(c2ccccc2)=N[C@@]12[C@H](c1ccccc1)[C@H]1CCCN1[C@]21C(=O)N(Cc2ccccc2)c2ccccc21,Active,Active,Active,Active,Active,Active,Active,Active,–,–,–,–,–,–,–,–,–,–
CN1C[C@@H](c2ccc(Cl)c(Cl)c2)[C@@]2(N=C(c3ccccc3)OC2=O)[C@@]12C(=O)N(Cc1ccccc1)c1ccccc12,Active,Active,Active,Active,Active,Active,Active,Active,–,–,–,–,–,–,–,–,–,–
CNC(=O)c1cc(Oc2ccc(NC(=O)Nc3ccc(Cl)c(C(F)(F)F)c3)cc2)ccn1 [SORAFENIB],–,–,–,–,–,–,–,–,> 10 µM,6.7 µM,5.1 µM,4.9 µM,5.5 µM,7.1 µM,–,–,–,–
O=C1OC(c2ccccc2)=N[C@@]12[C@H](c1ccccc1)[C@H]1CCCN1[C@]21C(=O)Nc2ccccc21,Active,Active,Active,Active,Active,Active,Active,Active,–,–,–,–,–,–,–,–,–,–
CN1C[C@@H](c2ccco2)[C@@]2(N=C(c3ccccc3)OC2=O)[C@@]12C(=O)N(Cc1ccccc1)c1ccccc12,Active,Active,Active,Active,Active,Active,Active,Active,–,–,–,–,–,–,–,–,–,–
O=C1OC(c2ccccc2)=N[C@@]12[C@H](c1ccccc1)[C@H]1CSCN1[C@]21C(=O)Nc2ccccc21,Active,Active,Active,Active,Active,Active,Active,Active,–,–,–,–,–,–,–,–,–,–
CN1C[C@@H](c2ccccc2)[C@@]2(N=C(c3ccccc3)OC2=O)[C@@]12C(=O)Nc1ccccc12,Active,Active,Active,Active,Active,Active,Active,Active,–,–,–,–,–,–,–,–,–,–
O=C1OC(c2ccccc2)=N[C@@]12[C@H](c1ccc(Cl)c(Cl)c1)[C@H]1CCCN1[C@]21C(=O)Nc2ccccc21,Active,Active,Active,Active,Active,Active,Active,Active,–,–,–,–,–,–,–,–,–,–
COc1cc([C@@H]2[C@H]3CCCN3[C@]3(C(=O)N(Cc4ccccc4)c4ccccc43)[C@]23N=C(c2ccccc2)OC3=O)cc(OC)c1OC,Active,Active,Active,Active,Active,Active,Active,Active,–,–,–,–,–,–,–,–,–,–
O=C1OC(c2ccccc2)=N[C@@]12[C@H](c1ccc(C(F)(F)F)cc1)[C@H]1CCCN1[C@]21C(=O)Nc2ccccc21,Active,Active,Active,Active,Active,Active,Active,Active,7.2 µM,8.7 µM,4.2 µM,3.4 µM,8.1 µM,7.9 µM,Active,Active,44.64%,16.17%
O=C1OC(c2ccccc2)=N[C@@]12[C@H](c1cccc(Cl)c1)[C@H]1CCCN1[C@]21C(=O)Nc2ccc(Cl)cc21,Active,Active,Active,Active,Active,Active,Active,Active,–,–,–,–,–,–,–,–,–,–
O=C1OC(c2ccccc2)=N[C@@]12[C@H](c1ccccc1)CN[C@]21C(=O)Nc2ccccc21,Active,Active,Active,Active,Active,Active,Active,Active,–,–,–,–,–,–,–,–,–,–
CN1C[C@@H](c2ccccc2)[C@@]2(N=C(c3ccccc3)OC2=O)[C@@]12C(=O)N(Cc1ccccc1)c1ccccc12,Active,Active,Active,Active,Active,Active,Active,Active,–,–,–,–,–,–,–,–,–,–
O=C1OC(c2ccccc2)=N[C@@]12[C@H](c1cccc(Cl)c1)[C@H]1CCCN1[C@]21C(=O)Nc2ccccc21,Active,Active,Active,Active,Active,Active,Active,Active,–,–,–,–,–,–,–,–,–,–
CN1C(=O)[C@@]2(c3ccccc31)N(C)C[C@@H](c1cccc(Cl)c1)[C@@]21N=C(c2ccccc2)OC1=O,Active,Active,Active,Active,Active,Active,Active,Active,–,–,–,–,–,–,–,–,–,–
O=C1OC(c2ccccc2)=N[C@@]12[C@H](c1ccc(Cl)c(Cl)c1)[C@H]1CCCN1[C@]21C(=O)N(Cc2ccccc2)c2ccccc21,Active,Active,Active,Active,Active,Active,Active,Active,–,–,–,–,–,–,–,–,–,–
